# Source: PMC4015918, “Conjugation to a SMAC mimetic potentiates sigma-2 ligand induced tumor cell death in ovarian cancer” (Molecular Cancer, 2014)
# Legend:
# Format in all cases: cell-based
# Hey A8 cells = experiment: Caspase-Glo caspase 3, 8 and 9 activity in Hey A8 cells; settings: 24 hours
# Method: Caspase 3, 8 and 9 activities were measured using Caspase-Glo® Assay Systems according to the manufacturer’s instructions (Promega, Madison, WI). Briefly, the assay systems are based on caspase-specific substrates, which are activated by cleavage, resulting in caspase specific luminescence signals. HeyA8 cells were plated at a density of 1 × 10^4 in white 96 well, clear bottom plates for 24 hours before treatment. Cells were treated with different concentrations of SW IV-134. Caspase 3, 8 and 9 assays were performed by adding 100 μl of caspase reagents to each well. The contents were mixed using a plate shaker for 30 seconds and incubated at room temperature for 90 minutes. Luminescence signal was measured using a multi-mode microplate reader (BioTek, Winooski, VT).
# Supplementary file 1476-4598-13-50-S3.pdf: Additional file 3: Figure S2 SW IV-134 induces caspase activation in ovarian cancer. Caspase 3, 8 and 9 activities were measured in Hey A8 cells using Caspase-Glo® Assay Systems (Promega). Hey A8 cells were treated with SW IV-134 at indicated drug concentrations for 24 hours. Caspase assays were performed by adding 100 μl lysis buffer containing the substrates for the respective caspase to be assayed. Luminescence signal intensities were recorded using a multi-mode microplate reader (BioTek). […] (A) caspase 8; (B) caspase 9; and (C) caspase 3. p < 0.001 for all analyses, one-way ANOVA. […]
# NF-қB (p65) = experiment: Western blot for phosphorylation of NF-қB (p65); settings: SKOV3 cells, 10 μM, 4 hours
# Method: (§1) Figure 4 SW IV-134 engages in SMAC-dependent pathway activation. (A) SKOV3 cells were treated with vehicle only (Ctrl.), SW43 (10 μM), and SW IV-134 (10 μM) for 4 hours and cell lysates were subjected to Western blot analysis using antibodies against XIAP, cIAP-1, cIAP-2, NF-қB and NIK. While XIAP seems unaffected under the conditions used, cIAP-1 and cIAP-2 proteins are readily undetectable shortly post treatment. SW IV-134 treatment also leads to accumulation of NF-қB inducing kinase (NIK) and activation of NF-қB pathway. (B) SKOV3 cells were treated with SW IV-134 at the indicated doses either alone or in the presence of proteasome inhibitor MG132 (20 μM) for 18 hours. […] Cell viability was determined as described in the experimental methods (p < 0.011, Student’s t-test).
# (§2) Cells were lysed in radioimmunoprecipitation assay buffer [50 mM Tris, 150 mM sodium chloride, 1.0 mM EDTA, 1% Nonidet P40, and 0.25% SDS (pH 7.0)], supplemented with complete protease inhibitor cocktail (Roche, Mannheim) and phosphatase inhibitor cocktail 1 (Sigma Chemical Co., St. Louis, MO). The protein concentration was determined using a BioRad Dc protein assay kit (Bio-Rad Laboratories, Hercules, CA). Lysates containing 30 μg of protein were run on a 12% polyacrylamide gel and transferred to a PVDF membrane (Bio-Rad Laboratories, Hercules, CA). […]
# SKOV3 cells = experiment: SKOV3 cell viability (CellTiter-Glo) with SW IV-134 alone or with pathway blockers
# Method: Figure 3 Treatment with SW IV-134 results in caspase-mediated cell death. (A) Cells were treated with vehicle only (Ctrl.), SW43 (10 μM), and SW IV-134 (10 μM) for 24 hours. Cell lysates were subjected to Western blot analysis, and probed with antibodies specific for the precursors and activated forms of caspases 8, 9, and 3. (B) SKOV3 cells were treated with SW IV-134 at indicated doses either alone or in the presence of the pan-caspase inhibitor Z-VAD-FMK (20 μM) for 18 hours. Cell viability was determined by CellTiter-Glo assays (p < 0.018, Student’s t-test).
# as §1
# Figure 5 SW IV-134 induces activation of the TNFα-dependent extrinsic death pathway. (A) Quantitative real-time PCR analysis of TNFα mRNA expression was done on RNA samples derived from SKOV3 cells treated with SW IV-134 (1 μM and 3 μM) for indicated time periods. All values were normalized to a GAPDH internal control (p < 0.0001, one-way ANOVA). […] Cell viability was determined as described in the experimental methods (p < 0.019, Student’s t-test).
# Cells (1 × 10^4) were seeded into 96 well plates. […] Cell viability was determined 18 hours after treatment using CellTiter-Glo Luminiscent Viability Assay (Promega, Madison, WI). Data were recorded with a SpectraMax Gemini microplate spectrofluorometer, Molecular Devices (Silicon Valley, CA).
# cIAP-1 and cIAP-2 = experiment: Western blot for cIAP-1 and cIAP-2 levels; settings: 10 μM
# Method: as §1, §2
# TNFα = TNFα ELISA of cell culture supernatants; settings: SKOV3 conditioned medium, 1 μM and 3 μM
# Method: Figure 5 SW IV-134 induces activation of the TNFα-dependent extrinsic death pathway. (A) Quantitative real-time PCR analysis of TNFα mRNA expression was done on RNA samples derived from SKOV3 cells treated with SW IV-134 (1 μM and 3 μM) for indicated time periods. All values were normalized to a GAPDH internal control (p < 0.0001, one-way ANOVA). (B) SKOV3 cells were treated with SW IV-134 (1 μM and 3 μM) and cell-culture supernatants were collected at 4, 12, and 24 hours after treatment, and subsequently examined by anti-TNFα ELISA according to manufacturer’s instructions (p < 0.0001, one-way ANOVA). (C) SKOV3 cells were treated with SW IV-134 at indicated doses either alone or in the presence of anti-TNFα blocking antibody for 18 hours. Cell viability was determined as described in the experimental methods (p < 0.019, Student’s t-test).
# SKOV3 cells were treated with SW IV-134 (1 μM and 3 μM). Cell culture supernatants were collected at 4, 12, and 24 hours after treatment. Medium was collected, floating cells were removed by centrifugation at 1200 × g for 5 minutes, and samples were frozen at -20°C until analysis. TNFα ELISA was performed using a quantitative high sensitivity sandwich immunoassay from eBioscience (San Diego, CA) as per the manufacturer’s instructions.
smiles,measurement,setting,value
COc1ccc(C)cc1NC(=O)OC1CC2CCCC(C1)N2CCCCCCCCCCN[C@@H](C)C(=O)N[C@H](C(=O)N1CCC[C@H]1C(=O)N[C@@H]1CCCc2ccccc21)C(C)(C)C (stereo partly shown) [SW IV-134],"Caspase 3, 8 and 9 activities (fold over DMSO control)",Hey A8 cells,significant increases in caspase activities
same,Activation (phosphorylation) of NF-қB (p65),NF-қB (p65),activation (phosphorylation) of NF-қB (p65)
same,Cell death induced by SW IV-134 in the presence of TNFα-blocking antibody,"SKOV3 cells; SKOV3, 18 hours",significant protection from cell death
same,SW IV-134 mediated cell death in the presence of proteasome inhibitor MG132,"SKOV3 cells; SKOV3, MG132 20 μM, 18 hours",significantly reduced
same,SW IV-134 induced cell death in the presence of pan-caspase inhibitor Z-VAD-FMK,"SKOV3 cells; SKOV3, Z-VAD-FMK 20 μM, 18 hours",significantly reduced
same,cIAP-1 protein level,"cIAP-1 and cIAP-2; SKOV3, Hey A8 and Hey A8 MDR cells, 2 hours",readily undetectable shortly after treatment
same,cIAP-1 and cIAP-2 protein levels,"cIAP-1 and cIAP-2; SKOV3 cells, 4 hours",rapid loss of both cIAP-1 and cIAP-2
same,TNFα protein secretion,TNFα; 4 hours,undetectable
same,TNFα protein secretion,TNFα; 12 hours,mildly elevated
same,TNFα protein secretion,TNFα; 24 hours,highest levels
